Experimental data: patent US20260200920A1, “SUBSTITUTED AMINOPYRIDINE COMPOUNDS FOR USE AS AKT1 INHIBITORS” (Atavistik Bio, Inc., priority 2023, published 2026)

Experiments:
[1] = target: T1, human recombinant kinase full-length wildtype AKT1 (Homo sapiens, UniProt P31749); assay: AKT1 kinase assay (wildtype, TR-FRET, Lance); format: biochemical; conditions: 0.6 nM wildtype AKT1, 50 nM Ulight-CREBtide, either 50 μM ATP or 2 mM ATP, 60 min at RT
T1 construct: Purified human recombinant kinase full-length wildtype AKT1 was expressed in insect cells; made in house; host or cells: insect cells
T1 sequence (P31749 whole entry): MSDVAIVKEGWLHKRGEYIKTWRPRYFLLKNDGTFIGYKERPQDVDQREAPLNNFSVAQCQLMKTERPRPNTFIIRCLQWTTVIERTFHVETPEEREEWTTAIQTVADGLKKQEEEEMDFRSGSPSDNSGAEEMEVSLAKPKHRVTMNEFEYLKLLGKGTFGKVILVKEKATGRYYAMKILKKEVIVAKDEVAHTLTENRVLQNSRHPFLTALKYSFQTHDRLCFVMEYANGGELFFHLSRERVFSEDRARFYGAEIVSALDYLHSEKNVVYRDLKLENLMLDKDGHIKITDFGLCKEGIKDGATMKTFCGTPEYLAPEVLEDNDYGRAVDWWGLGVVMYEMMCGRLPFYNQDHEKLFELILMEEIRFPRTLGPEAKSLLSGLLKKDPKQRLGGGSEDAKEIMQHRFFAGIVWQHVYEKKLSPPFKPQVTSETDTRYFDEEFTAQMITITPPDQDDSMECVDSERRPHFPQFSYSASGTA
In short: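 Insect-cell-expressed full-length human AKT1, PDPK1-activated (0.6 nM), preincubated with compound 15 min at RT, then reacted 60 min at RT with 50 nM ULight-CREBtide and 50 μM or 2 mM ATP (pH 7.5, 1% DMSO). Phospho-CREBtide read by Eu-anti-phospho-Ser133 TR-FRET (665/620 ratio); IC50 from 10-point 4-parameter fit.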

[2] = target: T2, human recombinant kinase full-length AKT1 E17K (Homo sapiens, UniProt P31749, E17K); assay: AKT1 E17K kinase assay (TR-FRET, Lance); format: biochemical; conditions: 0.6 nM AKT1 E17K, 50 nM Ulight-CREBtide, either 50 μM ATP or 2 mM ATP, 60 min at RT
T2 construct: Purified human recombinant kinase full-length AKT1 E17K was expressed in insect cells; made in house; host or cells: insect cells
T2 sequence (P31749 whole entry E17K): as the sequence (P31749 whole entry) above, with E17K counted along it
In short: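 Full-length AKT1 E17K from insect cells, PDPK1-activated, at 0.6 nM with 50 nM Ulight-CREBtide and 50 μM or 2 mM ATP, pH 7.5, 1% DMSO. Enzyme and compound preincubated 15 min, reaction run 60 min at RT; Eu-anti-phospho-CREB (Ser133) TR-FRET 665/620 ratio, 10-point curve, IC50 by 4-parameter fit.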

IC50 [1] [nM] | IC50 [2] [nM] | Compound
< 20000 | < 500 | CN(Cc1ccc(-n2c(-c3cccnc3N)nc3ccc(-c4ccccc4)nc32)c(F)c1)[C@H]1CC[C@@H](C(=O)O)CC1 [Compound I-165]
< 20000 | ≥ 2000 | CC1(C)C[C@H](CN2CCC(c3ccc(-n4c(-c5cccnc5N)nc5ccc(-c6ccccc6)nc54)cc3)CC2)CC(C)(C)[C@@H]1C(=O)O [Compound I-197]
< 20000 | < 500 | CN(Cc1ccc(-n2c(-c3cccnc3N)nc3ccc(-c4ccccc4)nc32)c(F)c1)C12CCC(C(=O)O)(CC1)CC2 [Compound I-161]
< 20000 | < 500 | CN(Cc1ccc(-n2c(-c3cccnc3N)nc3ccc(-c4ccccc4)nc32)cc1)[C@@H]1CC[C@@H](C(=O)O)C1 [Compound I-170]
< 20000 | < 500 | CN(Cc1ccc(-n2c(-c3cccnc3N)nc3ccc(-c4ccccc4)nc32)cc1)C1CC[C@H](C(=O)O)C1 (some centres unmarked) [Compound I-172]
< 20000 | < 500 | Cc1nc(NC(=O)[C@H]2CC[C@H](C(=O)O)CC2)ccc1-n1c(-c2cccnc2N)nc2ccc(-c3cccc(F)c3)nc21 [Compound I-214]
< 20000 | < 500 | Nc1ncccc1-c1nc2ccc(-c3ccccc3)nc2n1-c1ccc(C2CN(CC3CC4CC(C(=O)O)CC4C3)C2)cc1 (centres unmarked) [Compound I-151]
< 20000 | < 500 | CC1(c2ccc(-n3c(-c4cccnc4N)nc4ccc(-c5ccccc5)nc43)cc2)CN(CC2CC3(C2)CC(C(=O)O)C3)C1 (centres unmarked) [Compound I-155]
< 20000 | < 500 | Nc1ncccc1-c1nc2ccc(-c3ccccc3)nc2n1-c1ccc([C@@H]2CCN(C[C@H]3CC[C@H](C(=O)O)CC3)C2)cc1 (single isomer, unassigned) [Compound I-233]

The remaining lines, values behind:

Compound | IC50 [1] [nM] | IC50 [2] [nM]
Nc1ncccc1-c1nc2ccc(-c3ccccc3)nc2n1-c1ccc(NCC2CCC(C(=O)O)CC2)nc1 (centres unmarked) [Compound I-12, 4-(((5-(2-(2-aminopyridin-3-yl)-5-phenyl-3H-imidazo[4,5-b]pyridin-3-yl)pyridin-2-yl)amino)methyl)cyclohexane-1-carboxylic acid] | < 20000 | < 500
CC(C)(C(=O)O)C1CCN(Cc2ccc(-n3c(-c4cccnc4N)nc4ccc(-c5ccccc5)nc43)cc2)CC1 [Compound I-92, 2-(1-(4-(2-(2-aminopyridin-3-yl)-5-phenyl-3H-imidazo[4,5-b]pyridin-3-yl)benzyl)piperidin-4-yl)-2-methylpropanoic acid] | < 20000 | ≥ 2000
Cc1nc(NC(=O)C2CCC(C(=O)O)CC2)ccc1-n1c(-c2cccnc2N)nc2ccc(-c3ccccc3)nc21 (centres unmarked) [Compound I-108, 4-((5-(2-(2-aminopyridin-3-yl)-5-phenyl-3H-imidazo[4,5-b]pyridin-3-yl)-6-methylpyridin-2-yl)carbamoyl)cyclohexane-1-carboxylic acid] | < 20000 | 500 to 2000
Cc1nc(NC(=O)[C@H]2CC[C@H](C(=O)O)CC2)ccc1-n1c(-c2cccnc2N)nc2ccc(-c3ccccn3)cc21 [Compound I-130, (1r,4r)-4-((5-(2-(2-aminopyridin-3-yl)-6-(pyridin-2-yl)-1H-benzo[d]imidazol-1-yl)-6-methylpyridin-2-yl)carbamoyl)cyclohexane-1-carboxylic acid] | < 20000 | ≥ 2000
Cc1nc(NC(=O)[C@H]2CC[C@H](C(=O)O)CC2)ccc1-n1c(-c2cccnc2N)nc2ccc(-c3ccccc3)nc21 [Compound I-118, (1r,4r)-4-((5-(2-(2-aminopyridin-3-yl)-5-phenyl-3H-imidazo[4,5-b]pyridin-3-yl)-6-methylpyridin-2-yl)carbamoyl)cyclohexane-1-carboxylic acid] | < 20000 | < 500
Nc1ncccc1-c1nc2ccc(-c3ccc(F)cc3)nc2n1-c1ccc(C2CN(C[C@H]3CC[C@H](C(=O)O)CC3)C2)cc1 [Compound I-66, (1r,4r)-4-((3-(4-(2-(2-aminopyridin-3-yl)-5-(4-fluorophenyl)-3H-imidazo[4,5-b]pyridin-3-yl)phenyl)azetidin-1-yl)methyl)cyclohexane-1-carboxylic acid] | < 20000 | 500 to 2000
Cc1nc(NC(=O)C2CC3(CC(C(=O)O)C3)C2)ccc1-n1c(-c2cccnc2N)nc2ccc(-c3ccccc3)nc21 (centres unmarked) [Compound I-125, 6-((5-(2-(2-aminopyridin-3-yl)-5-phenyl-3H-imidazo[4,5-b]pyridin-3-yl)-6-methylpyridin-2-yl)carbamoyl)spiro[3.3]heptane-2-carboxylic acid] | < 20000 | < 500
CC1(C(=O)O)CCN(C(=O)c2ccc(-n3c(-c4cccnc4N)nc4ccc(-c5ccccc5)nc43)cn2)CC1 [Compound I-23, 1-(5-(2-(2-aminopyridin-3-yl)-5-phenyl-3H-imidazo[4,5-b]pyridin-3-yl)picolinoyl)-4-methylpiperidine-4-carboxylic acid] | 20000 to 80000 | ≥ 2000
CC1(C)C[C@H](CN2CC(c3ccc(-n4c(-c5cccnc5N)nc5ccc(-c6ccccc6)nc54)cc3)C2)CC[C@H]1C(=O)O [Compound I-71, (1R,4R)-4-((3-(4-(2-(2-aminopyridin-3-yl)-5-phenyl-3H-imidazo[4,5-b]pyridin-3-yl)phenyl)azetidin-1-yl)methyl)-2,2-dimethylcyclohexane-1-carboxylic acid] | < 20000 | < 500
Nc1ncccc1-c1nc2ccc(-c3ccccc3)nc2n1-c1ccc(N[C@H]2CC[C@@H](C(=O)O)CC2)nc1 (single isomer, unassigned) [Compound I-15, (1s,4s)-4-((5-(2-(2-aminopyridin-3-yl)-5-phenyl-3H-imidazo[4,5-b]pyridin-3-yl)pyridin-2-yl)amino)cyclohexane-1-carboxylic acid] | < 20000 | ≥ 2000
Nc1ncccc1-c1nc2ccc(-c3ccccc3)nc2n1-c1ccc(C2CN(C[C@@H]3CC[C@H](C(=O)O)C3)C2)cc1 [Compound I-58, (1S,3R)-3-((3-(4-(2-(2-aminopyridin-3-yl)-5-phenyl-3H-imidazo[4,5-b]pyridin-3-yl)phenyl)azetidin-1-yl)methyl)cyclopentane-1-carboxylic acid] | < 20000 | < 500
Nc1ncccc1-c1nc2ccc(OC(F)(F)F)cc2n1-c1ccc(NC(=O)[C@H]2CC[C@H](C(=O)O)CC2)nc1 [Compound I-123, (1r,4r)-4-((5-(2-(2-aminopyridin-3-yl)-6-(trifluoromethoxy)-1H-benzo[d]imidazol-1-yl)pyridin-2-yl)carbamoyl)cyclohexane-1-carboxylic acid] | < 20000 | ≥ 2000
Nc1ncccc1-c1nc2ccc(-c3ccccc3)nc2n1-c1ccc(C(=O)N2CCC(C(=O)O)CC2)cc1 [Compound I-20, 1-(4-(2-(2-aminopyridin-3-yl)-5-phenyl-3H-imidazo[4,5-b]pyridin-3-yl)benzoyl)piperidine-4-carboxylic acid] | < 20000 | ≥ 2000
Nc1ncccc1-c1nc2ccc(-c3ccccc3)nc2n1-c1ccc(NC(=O)[C@H]2CC[C@H](C(N)=O)CC2)nc1 [Compound I-115, (1r,4r)-N-(5-(2-(2-aminopyridin-3-yl)-5-phenyl-3H-imidazo[4,5-b]pyridin-3-yl)pyridin-2-yl)cyclohexane-1,4-dicarboxamide] | < 20000 | < 500
CC1(C(=O)O)CCN(Cc2ccc(-n3c(-c4cccnc4N)nc4ccc(-c5ccccc5)nc43)cc2)CC1 [Compound I-86, 1-[[4-[2-(2-amino-3-pyridyl)-5-phenyl-imidazo[4,5-b]pyridin-3-yl]phenyl]methyl]-4-methyl-piperidine-4-carboxylic acid] | < 20000 | 500 to 2000
Nc1ncccc1-c1nc2ccc(-c3ccccc3)nc2n1-c1ccc(NC[C@H]2CC[C@@H](C(=O)O)CC2)nc1 [Compound I-114, (1s,4s)-4-(((5-(2-(2-aminopyridin-3-yl)-5-phenyl-3H-imidazo[4,5-b]pyridin-3-yl)pyridin-2-yl)amino)methyl)cyclohexane-1-carboxylic acid] | < 20000 | 500 to 2000
Nc1ncccc1-c1nc2ccc(-c3ccccc3)nc2n1-c1ccc(C2CN(C[C@H]3CC[C@H](C(=O)O)CC3)C2)cc1 [Compound I-57, (1r,4r)-4-((3-(4-(2-(2-aminopyridin-3-yl)-5-phenyl-3H-imidazo[4,5-b]pyridin-3-yl)phenyl)azetidin-1-yl)methyl)cyclohexane-1-carboxylic acid] | < 20000 | < 500
Nc1ncccc1-c1nc2ccc(-c3ccccc3)nc2n1-c1ccc(CN2CC3(CC(C(=O)O)C3)C2)cc1 [Compound I-93, 2-(4-(2-(2-aminopyridin-3-yl)-5-phenyl-3H-imidazo[4,5-b]pyridin-3-yl)benzyl)-2-azaspiro[3.3]heptane-6-carboxylic acid] | < 20000 | 500 to 2000
CC(C)(C(=O)O)C1CCN(C(=O)c2ccc(-n3c(-c4cccnc4N)nc4ccc(-c5ccccc5)nc43)cc2)C1 (centres unmarked) [Compound I-82, 2-(1-(4-(2-(2-aminopyridin-3-yl)-5-phenyl-3H-imidazo[4,5-b]pyridin-3-yl)benzoyl)pyrrolidin-3-yl)-2-methylpropanoic acid] | < 20000 | ≥ 2000
